# How the values were obtained:
# [1] = tested on: HT22 cells; assay: In vitro ischemia assay (HT22 cell IAA assay, MTT); type: cell-based, mouse; details: for EC50 in vitro ischemia (μM): HT22 cells; for EC50 in vitro ischemia (μM) / EC50: 20 μM IAA for 2 hr, viability after 24 hr by MTT; for EC50: Mus musculus, HT-22, HT22 cells, read-out: EC50 in vitro ischemia
# Method: Cell viability was determined by a modified version of 3-(4,5-dimethylthiazol-2-yl)-2,5-diphenyl tetrazolium bromide (MTT) assay based on the standard procedure (Maher, et al., Brain Research. (2007), supra). Cells were seeded onto 96-well microtiter plates at a density of 5×10^3 cells per well. For the in vitro ischemia assay, the next day, the medium was replaced with DMEM supplemented with 7.5% DFCS and the cells were treated with 20 μM iodoacetic acid (IAA) alone or in the presence of the different derivatives. After 2 hr the medium in each well was aspirated and replaced with fresh medium without IAA but containing the derivatives. 20 hr later, the medium in each well was aspirated and replaced with fresh medium containing 2.5 μg/ml MTT. After 4 hr of incubation at 37° C., the cells were solubilized with 100 μl of a solution containing 50% dimethylformamide and 20% SDS (pH 4.7). The absorbance at 570 nm was measured on the following day with a microplate reader (Molecular Devices). Results were confirmed by visual inspection of the wells. Controls included compound alone to test for toxicity and compound with no cells to test for interference with the assay chemistry.
# For a primary screen, an in vitro ischemia model in combination with the HT22 nerve cell line (Maher, et al., Brain Research. (2007) 1173, 117-125) was chosen. […] To induce ischemia in the HT22 cells we used iodoacetic acid (IAA), a well-known, irreversible inhibitor of the glycolytic enzyme glyceraldehyde 3-phosphate dehydrogenase (G3PDH) (Winkler, et al., Exp. Eye Res. (2003) 76, 715-723). IAA has been used in a number of other studies to induce ischemia in nerve cells (Reshef, et al., Neurosci. Lett. (1997) 238, 37-40; Sperling, et al., Neursci. Lett. (2003) 351, 137-140; Rego, et al., Neurochem. Res. (1999) 24, 351-358; Sigalov, et al., J. Mol. Neurosci. (2000) 15, 147-154; and Reiner, et al., Neurosci. Lett. (1990) 119, 175-178), including several recent screens for neuroprotective molecules (Biraboneye, et al., J. Med. Chem. (2009) 52 (14), 4358-4369; Biraboneye, et al., Chem. Med. Chem. (2010) 5 (1), 79-85). The changes following IAA treatment of neural cells are very similar to those seen in animal models of ischemic stroke (Lipton, et al., Physiol. Rev. (1999) 79, 1431-1568) and include alterations in membrane potential (Reiner, et al., Neurosci. Lett. (1990) 119, 175-178), breakdown of phospholipids (Taylor, et al., J. Pharmacol. Exp. Ther. (1996) 276, 1224-1231), loss of ATP (Winkler, et al., Exp. Eye Res. (2003) 76, 715-723; Sperling, et al., Neursci. Lett. (2003) 351, 137-140) and an increase in reactive oxygen species (ROS) (Taylor, et al., J. Pharmacol. Exp. Ther. (1996), supra; and Sperling, et al., Neursci. Lett. (2003) 351, 137-140).
# (§1) Cell viability was determined after 24 hr by the MTT assay. The ability to maintain GSH (GSH) was determined by treating HT22 cells with different doses of each derivative (1-10 μM) in the presence of 5 mM glutamate. After 24 hr cell extracts were prepared and analyzed for total GSH. Fisetin (10 μM) was used as a positive control. The ability to induce PC12 cell differentiation (PC 12 diff' n) was determined by treating PC12 cells in N2 medium with different doses of each derivative (1-10 μM) for 24 hr. Differentiation was assessed by visual inspection with Fisetin (10 μM) as a positive control. Anti-inflammatory activity (microglia) was assessed in N9 microglial cells treated with bacterial lipopolysaccharide alone or in the presence different doses of each derivative (1-10 μM) for 24 hr. Fisetin was used as a positive control. TEAC values, a measure of direct antioxidant activity, were determined using the ABTS decolorization assay.
# For rapid screening of chemical libraries, a mouse HT22 hippocampal cell death assay induced by addition of the compound iodoacetic acid (IAA) was used. IAA is a well-known, irreversible inhibitor of the glycolytic enzyme glyceraldehyde 3-phosphate dehydrogenase (G3PDH). […]
# [2] = tested on: HT22 cells; assay: Maintenance of total GSH in the presence of glutamate; type: cell-based, mouse; details: derivative 1-10 μM, 5 mM glutamate, 24 hr
# Method: Total intracellular glutathione was determined by a chemical assay as described (Maher, P. et al., Free Radical Research. (2006) 40 (10), 1105-1111).
# (§2) Three secondary screens allowed assessment of three key activities of Fisetin that are highly relevant to stroke, as well as other neurological disorders: maintenance of glutathione (GSH), the major endogenous cellular antioxidant, inhibition of LPS-induced microglial activation, an indicator of anti-inflammatory activity and PC 12 cell differentiation, a measure of neurotrophic activity. All of these activities are relevant to the nerve cell loss seen in stroke (Gelderblom, et al., Stroke. 2009, 40 (5), 1849-1857; Pandya, et al., Cent. Nerv. Syst. Agents. Med. Chem. (2011) April 27; Lewerenz, et al., J. Neurochem. (2010) 113 (2), 502-504). […] To assess GSH maintenance, total intracellular GSH levels after a 24 hr treatment with the compound both in the absence and presence of glutamate, an inducer of GSH loss and oxidative stress (Tan, et al., Curr. Top. Med. Chem. (2001) 1, 497-506; Maher, et al., Free Radical Research. (2006) 40 (10), 1105-1111) was measured. Inhibition of LPS-induced microglial activation was determined by treating N9 mouse microglial cells with LPS alone and in the presence of the compounds and assaying NO release into the medium 24 hr later (Zheng, et al., Int. Immunopharmacol. (2008) 8, (3), 484-494). PC12 cell differentiation was determined by treating PC12 cells with the compounds and looking at neurite outgrowth after 24 hr. In all cases, Fisetin was used as a positive control (Sagara, et al., J. Neurochem. (2004) 90, 1144-1155).
# as §1
# [3] = tested on: PC12 cells; assay: PC12 cell differentiation (neurite outgrowth); type: cell-based; details: N2 medium, derivative 1-10 μM, 24 hr, visual inspection
# Method: PC 12 cells in N2 medium were treated with the derivatives (1-10 μM) or Fisetin (10 μM) as a positive control for 24 hr at which time the cells were scored for the presence of neurites. PC12 cells produce neurites much more rapidly when treated in N2 medium than when treated in regular growth medium. For each treatment, 100 cells in each of three separate fields were counted. Cells were scored positive if one or more neurites>1 cell body diameter in length were observed.
# as §2, §1
# [4] = TEAC, ABTS decolorization assay; details: relative to Trolox
# Method: TEAC values for the flavonoids were determined as described (Maher, P. et al., Free Radical Research. (2006), supra). Briefly, 250 μl of 2,2′-azinobis(3-ethylbenzothiazoline 6-sulfonate) (ABTS) treated overnight with potassium persulfate and diluted to an OD of ˜0.7 at 734 nm was added to 2.5 μl of a derivative solution in ethanol. The change in absorbance due to the reduction of the ABTS radical cation was measured at 734 nm for 4 min. To calculate the TEAC, the gradient of the plot of the percentage inhibition of absorbance vs. concentration for the derivative in question was divided by the gradient of the plot for Trolox.
# as §1
SMILES,EC50 in vitro ischemia (μM) [1],GSH (ability to maintain GSH) [2],PC12 diff'n (ability to induce PC12 cell differentiation) [3],TEAC [4],EC50 [1] [nM],"fold enhancement of neuroprotective activity relative to CMS-027 ([1]; in vitro ischemia, HT22/IAA) [fold]"
"CCOc1ccc(/C=C/C(=O)c2ccc3ccccc3c2O)cc1OCC [CMS-032, (E)-3-(3,4-diethoxyphenyl)-1-(1-hydroxynaphthalen-2-yl)prop-2-en-1-one]",no,no,no,0.12,–,–
"O=c1cc(-c2ccc(N3CCCC3)cc2)oc2c1ccc1ccccc12 [CMS-115, 2-(4-(pyrrolidin-1-yl)phenyl)-4H-benzo[h]chromen-4-one]",–,no,no,0.03,200,–
"COc1cc(-c2ccc(N3CCCC3)cc2)nc2ccccc12 [CMS-110, 4-methoxy-2-(4-(pyrrolidin-1-yl)phenyl)quinoline]",no,no,no,0.27,–,–
"CC(C)Oc1cc(-c2ccc(N3CCCC3)cc2)nc2ccccc12 [CMS-113, 4-isopropoxy-2-(4-(pyrrolidin-1-yl)phenyl)quinoline]",–,no,no,0.27,500,–
"COc1cc(-c2cc(=O)c3cc(C)c(C)cc3o2)ccc1OCc1ccccc1 [CMS-058, 2-(4-(benzyloxy)-3-methoxyphenyl)-6,7-dimethyl-4H-chromen-4-one]",–,no,no,0.09,500,–
"CCOc1ccc(-c2oc3cc(C)c(C)cc3c(=O)c2O)cc1OCC [CMS-025, 2-(3,4-diethoxyphenyl)-3-hydroxy-6,7-dimethyl-4H-chromen-4-one]",–,no,no,0.84,500,–
"CCOc1ccc(-c2oc3c(ccc4ccccc43)c(=O)c2O)cc1OCC [CMS-036, 2-(3,4-diethoxyphenyl)-3-hydroxy-4H-benzo[h]chromen-4-one]",–,no,no,0.15,300,–
"COc1cc(/C=C/C(=O)c2ccc3ccccc3c2O)ccc1OCc1ccccc1 [CMS-063, (E)-3-(4-(benzyloxy)-3-methoxyphenyl)-1-(1-hydroxynaphthalen-2-yl)prop-2-en-1-one]",–,no,no,0.15,500,–
"CCOc1ccc(-c2cc(=O)c3ccc4ccccc4c3o2)cc1OCC [CMS-038, 2-(3,4-diethoxyphenyl)-4H-benzo[h]chromen-4-one]",no,no,no,0.2,–,–
"Cc1cc(O)c(C(=O)/C=C/c2ccc(O)cc2O)cc1C [CMS-087, (E)-3-(2,4-dihydroxyphenyl)-1-(2-hydroxy-4,5-dimethylphenyl)prop-2-en-1-one]",–,no,yes,0.93,50,–
"CC(C)Oc1cc(-c2ccc(N(C)C)cc2)nc2ccccc12 [CMS-112, 4-isopropoxy-2-(4-dimethylaminophenyl)quinoline]",–,no,no,0.15,50,–
"COc1ccc(-c2cc(OC)c3ccccc3n2)cc1O [CMS-001, 4-methoxy-2-(3-hydroxy, 4-methoxyphenyl) quinoline]",no,no,no,0.24,–,–
"COc1cc(-c2ccc([N+](=O)[O-])c(O)c2)nc2ccccc12 [CMS-111, 4-methoxy-2-(3-hydroxy-4-nitrophenyl)quinoline]",no,no,no,0.18,–,–
"Cc1cc2oc(-c3ccc(O)c(O)c3)cc(=O)c2cc1C [CMS-028, 2-(3,4-dihydroxyphenyl)-6,7-dimethyl-4H-chromen-4-one]",–,no,no,0.27,250,2

# Reference: patent publication US20140186329A1, “POLYPHENOL ANALOGS TO TREAT ISCHEMIA” (priority 2011, published 2014)
